Results: PubChem BioAssay (NCI)
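Briefly, cells in 96-well plates were exposed to five compound concentrations for 48 h, and endpoints were estimated by linear interpolation. Definition used: TGI = concentration required for complete inhibition of growth.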

Columns and labels:
Experiment in all cases: NCI-60 cell line screen, 48 h
[1] = test system: 786-0 renal
[2] = test system: A498 renal
[3] = test system: A549 NSCLC
[4] = test system: ACHN renal
[5] = test system: CAKI-1 renal
[6] = test system: CCRF-CEM leukemia
[7] = test system: COLO 205 colon
[8] = test system: DLD-1 colon
[9] = test system: DMS 114 small cell lung
[10] = test system: DMS 273 small cell lung
[11] = test system: EKVX NSCLC
[12] = test system: HCC-2998 colon
[13] = test system: HCT-116 colon
[14] = test system: HCT-15 colon
[15] = test system: HL-60(TB) leukemia
[16] = test system: HOP-18 NSCLC
[17] = test system: HOP-62 NSCLC
[18] = test system: HOP-92 NSCLC
[19] = test system: HT29 colon
[20] = test system: IGROV1 ovarian
[21] = test system: K-562 leukemia
[22] = test system: KM12 colon
[23] = test system: KM20L2 colon
[24] = test system: LOX IMVI melanoma
[25] = test system: LXFL 529 NSCLC
[26] = test system: M14 melanoma
[27] = test system: M19-MEL melanoma
[28] = test system: MALME-3M melanoma
[29] = test system: MOLT-4 leukemia
[30] = test system: NCI-H226 lung
[31] = test system: NCI-H23 lung
[32] = test system: NCI-H460 lung
[33] = test system: NCI-H522 lung
[34] = test system: OVCAR-3 ovarian
[35] = test system: OVCAR-4 ovarian
[36] = test system: OVCAR-5 ovarian
[37] = test system: OVCAR-8 ovarian
[38] = test system: RPMI-8226 leukemia
[39] = test system: SF-268 CNS
[40] = test system: SF-295 CNS
[41] = test system: SF-539 CNS
[42] = test system: SK-MEL-2 melanoma
[43] = test system: SK-MEL-5 melanoma
[44] = test system: SK-OV-3 ovarian
[45] = test system: SN12C renal
[46] = test system: SNB-19 CNS
[47] = test system: SNB-78 CNS
[48] = test system: SW-620 colon
[49] = test system: TK-10 renal
[50] = test system: U251 CNS
[51] = test system: UACC-257 melanoma
[52] = test system: UACC-62 melanoma
[53] = test system: UO-31 renal
[54] = test system: XF 498 CNS
[55] = test system: RXF 393 renal
[56] = test system: SK-MEL-28 melanoma
[57] = test system: SNB-75 CNS
[58] = test system: SR leukemia

Measured: TGI

OC1OC2COC(c3ccccc3)OC2C(O)C1O (configuration not stated)
not listed: [55] | [56] | [57] | [58]
> 100 µM: all other assays above

OC1/C(=C/c2ccccc2)CNC/C1=C\c1ccccc1 (configuration not stated)
not listed: [21] | [30] | [31] | [42] | [54]
> 100 µM: all other assays above
